Tests used:
[1] = tested on: Myzus persicae; assay: Myzus persicae test (cabbage leaf dip); type: in vivo; conditions: single active compound
[2] = tested on: Phaedon cochleariae larvae; assay: Phaedon cochleariae larvae test (cabbage leaf dip); conditions: single active compound

Question: Which results are given for CN(Cc1ccc(Cl)nc1)C1=CC(=O)OC1 [compound (Ia)]?
Answer: Kill in % after 1d ([1]; 0.8 ppm): 70%; Kill in % after 6d ([2]; 20 ppm): 5%; Kill in % after 4d ([2]; 100 ppm): 68%

Question: Which results are given for O=C1C=C(N(Cc2ccc(Cl)nc2)C2CC2)CO1 [compound (Ib)]?
Answer: Kill in % after 1d ([1]; 0.8 ppm): 10%; Kill in % after 1d ([1]; 4 ppm): 75%

Question: For Cc1cc(C)c(C2=C(OC(=O)CC(C)(C)C)C3(CCCC3)OC2=O)c(C)c1 [spiromesifen, reference compound], which “Kill in % after 1d” value ([1]; 100 ppm) is on record?
Answer: 0%

Question: What about the “Kill in % after 6d” value ([2]; 100 ppm) of the same compound?
Answer: 10%

Question: spirotetramate [reference compound] was tested. Which “Kill in % after 1d” value ([1]; 0.8 ppm) did it give?
Answer: 5%

Question: And the “Kill in % after 4d” value ([2]; 20 ppm)?
Answer: 5%

— US8105979B2, “Active ingredient combinations with insecticidal and acaricidal properties” (Bayer CropScience AG, priority 2006, dated 2012)
